Experimental data taken from US20120237651A1 (priority 2002, published 2012).
Several values for one entry are separate records, joined by “and”; a condition that tells them apart may be missing. Equal values may be shown once. Where a name gives a salt, the structure may show the parent alone. Read-outs that look alike come from different tables or passages of the source.

How the values were obtained:
[1] = test system: DON contamination; test: Field test, mixed use (1): DON contamination concentration by HPLC-UV (Example 3); assay type: in vivo, Wheat (cultivar: Haruyutaka)
Description: Wheat (cultivar: Haruyutaka) was seeded on Apr. […] A suspension containing potassium phosphite and various fungicidal agents was prepared in a liquid mixture made up of a spreading agent (Gramine S: supplied from Hokkai Sankyo Co., Ltd.) and water. Using potassium phosphite as the compound A, 0.070% P2O5, and the 0.006 to 0.025% fungicidal agent for agri-horticulture for the wheat as the compound B, water solution containing them was prepared, and 100 L thereof per 10 a was sprayed on leaves in the following growth stages. That is, the first spray (June 24, heading date), the second (June 30, flowering stage), the third (July 9) were performed. The harvest was performed on August 12 (50 days after the heading date) by harvesting the wheat in 3.4 m^2 in each section. […] The DON contamination concentration was analyzed using HPLC-UV method in officially fixed methods shown by the Minister of Health, Labor and Welfare. Quantitative analysis was performed by repeating three times, and the quantitative value was an average value thereof.
Preparation of analysis sample solutions and the analysis procedure are briefly described.
To 50 g of the whole grain powder, 85% acetonitrile was added, vigorously agitated for 30 min, and subsequently sonicated for 10 min.
After eliminating impurities with filter paper, a filtrate was purified using a pretreatment column MultiSep #227 to make a solution for analysis.
The test solution for analysis was injected into high performance liquid chromatography, and DON was detected by ultraviolet rays.

[2] = test system: Fusarium head blight; assay type: in vivo, Wheat (cultivar: Haruyutaka)
[3] = test system: DON contamination; test: Field test, mixed use (2): DON contamination concentration by ELISA (Example 4); assay type: in vivo, Wheat (cultivar: Haruyutaka)
[4] = test system: Fusarium head blight; assay type: in vivo, Wheat (cultivar: Haruyutaka); remark: listed apart in the source
[5] = test system: DON contamination; test: Field test, single use: DON contamination concentration of wheat whole grain powder by ELISA (Example 1); details: for DON concentration: 3 foliar sprays
Description: Wheat (cultivar: Haruyutaka) was seeded on Apr. 19, 2002, and cultivated according to a conventional cultivating standard (Hokkaido, Agriculture Department, 1995) to establish test sections with 6.75 m^2 per section (3 repeats). […] That is, the first spray (June 28, flowering date), the second spray (Jul. 8, 10 days after the flowering date, and the third spray (Jul. 18, 20 days after the flowering date) were performed. A conventional control for the purpose of controlling plant pathogens and plant insects was performed together. That is, the first [June 20, azoxystrobin (2000 times dilution)+fenitrothion (1000 times dilution)], the second [tebuconazole (June 28, 2000 times dilution)+sumithione (1000 times dilution)], and the third [July 8, propiconazole (2000 times dilution)+fenitrothion (1000 times dilution)], the forth [July 17, tebuconazole (2000 times dilution)+fenitrothion (1000 times dilution)] were performed. As controls, the test section where only the conventional control was given and the test section without any control were established. Harvest was performed by harvesting the wheat in 4 m^2 in the test sections on August 9 (52 days after the heading date). After the harvest, the wheat was applied on a rice grader with 2.2 mm opening of screen to make selected grains, which were then pulverized by a rapid pulverizer to make whole grain powder. The whole grain powder was used as a sample for analysis. The DON contamination concentration was analyzed by ELISA method using commercially available Rida Screen Fast Don supplied from r-Biopharm.
Preparation of analysis sample solutions and analysis procedure are briefly described.
To 5 g of the whole grain powder, 100 ml of water was added, and vigorously agitated for 10 min to make a DON extract solution.
The DON extract solution was centrifuged at high speed, and the supernatant was used for the ELISA analysis.
According to the method described on ELISA kit, various reagents were added, and subsequently an absorbance of each test solution was measured.
The DON concentration of each test solution was read out from a standard curve made using DON standard solutions.

[6] = test system: DON contamination; parameters: species or system Wheat (cultivar: Haruyutaka); details: in vivo
[7] = test system: Fusarium head blight; assay type: in vivo, Wheat (cultivar: Haruyutaka); remark: listed apart in the source
[8] = test system: Fusarium graminearum having DON production capacity; assay type: cell-based
[9] = test system: Fusarium graminearum having DON production capacity; assay type: cell-based; remark: listed apart in the source
[10] = test system: Fusarium graminearum; assay type: cell-based; details: for Ergosterol peak area: day 28 of culture
[11] = test system: Fusarium graminearum; assay type: cell-based; details: potassium phosphite 5.6%; for Ergosterol peak area value: 27° C.
[12] = Metconazole 0.006% mixed with potassium phosphite 0.07% P2O5
[13] = Metconazole 0.006%, without potassium phosphite
[14] = Tebuconazole 0.020% mixed with potassium phosphite 0.07% P2O5
[15] = Tebuconazole 0.020%, without potassium phosphite
[16] = Tebuconazole 0.020% mixed with potassium phosphite 0.070% in P2O5
[17] = active ingredient A 0.120% (as P2O5), conventional control
[18] = Iminoctadine acetate 0.025% mixed with potassium phosphite 0.07% P2O5
[19] = Iminoctadine acetate 0.025%, without potassium phosphite
[20] = Kresoxim-methyl 0.021% mixed with potassium phosphite 0.07% P2O5
[21] = Kresoxim-methyl 0.021%, without potassium phosphite
[22] = Propiconazole 0.017% mixed with potassium phosphite 0.07% P2O5
[23] = Propiconazole 0.017%, without potassium phosphite
[24] = Propiconazole 0.017% mixed with potassium phosphite 0.070% in P2O5
[25] = Trifloxystrobin 0.025% mixed with potassium phosphite 0.070% in P2O5
[26] = Trifloxystrobin 0.025%, without potassium phosphite
[27] = sulfur 0.125% mixed with potassium phosphite 0.070% in P2O5
[28] = sulfur 0.125%, without potassium phosphite
[29] = active ingredient A 0.112% (as P2O5), conventional control
[30] = active ingredient A 0.038% (as P2O5), conventional control
[31] = active ingredient A 0.070% (as P2O5), conventional control
[32] = active ingredient A 0.112% (as P2O5), no control
[33] = potassium phosphite 0.07% P2O5 alone, no active ingredient B
[34] = potassium phosphite 0.070% in P2O5 alone, no active ingredient B

CC1(C)CCC(Cc2ccc(Cl)cc2)C1(O)Cn1cncn1 (racemic) [Metconazole, (1RS,5RS)-5-(4-chlorobenzyl)-2,2-dimethyl-1-(1-H-1,2,4-triazol-1-ylmethyl)cyclopentanol]
DON concentration [1, 12]: 0.10 ppm | DON concentration [1, 13]: 0.34 ppm | Incidence rate for panicles [2, 12]: 1.0% | Number of diseased spikelets/panicle [2, 12]: 0.010 | Incidence rate for panicles [2, 13]: 0.7% | Number of diseased spikelets/panicle [2, 13]: 0.007

CC(C)(C)C(O)(CCc1ccc(Cl)cc1)Cn1cncn1 (racemic) [Tebuconazole, (RS)-1-p-chlorophenyl-4,4-dimethyl-3-(1H-1,2,4-triazol-1-ylmethyl)pentan-3-ol]
DON concentration [1, 14]: 0.38 ppm | DON concentration [1, 15]: 0.39 ppm | DON concentration [3, 16]: 0.08 ppm | DON concentration [3, 15]: 0.16 ppm | Incidence rate for panicles [4, 16]: 5.0% | Number of diseased spikelets/panicle [4, 16]: 5.0 | Incidence rate for panicles [2, 14]: 1.0% | Number of diseased spikelets/panicle [2, 14]: 0.010

CCO[PH](=O)O [Fosetyl, aluminium salt (common name: fosetyl) of tris(ethylphosphonate)]
DON concentration [5, 17]: 0.84 ppm | DON concentration diseased grain [6]: 11.0 ppm | DON concentration healthy grain [6]: 0.96 ppm | Incidence rate of Fusarium head blight for panicles [7, 17]: 0.0%

CC(=O)O.CC(=O)O.CC(=O)O.NC(N)=NCCCCCCCCNCCCCCCCCN=C(N)N [Iminoctadine acetate, 1,1′-iminodi(octamethylene)diguanidium=triacetate]
DON concentration [1, 18]: 0.20 ppm | DON concentration [1, 19]: 1.04 ppm | Incidence rate for panicles [2, 18]: 3.0% | Number of diseased spikelets/panicle [2, 18]: 0.030 | Incidence rate for panicles [2, 19]: 1.7% | Number of diseased spikelets/panicle [2, 19]: 0.017

CO/N=C(/C(=O)OC)c1ccccc1COc1ccccc1C [Kresoxim-methyl, methyl=(E)-2-methoxyimino[α-(o-tolyloxy)-o-tolyl]acetate]
DON concentration [1, 20]: 0.51 ppm | DON concentration [1, 21]: 1.05 ppm | Incidence rate for panicles [2, 20]: 0.7% | Number of diseased spikelets/panicle [2, 20]: 0.007 | Incidence rate for panicles [2, 21]: 0.3% | Number of diseased spikelets/panicle [2, 21]: 0.003

CCCC1COC(Cn2cncn2)(c2ccc(Cl)cc2Cl)O1 (stereo not drawn) [Propiconazole, 1-[2-(2,4-dichlorophenyl)-4-propyl-1,3-dioxolan-2-ylmethyl)-1H-1,2,4-triazole]
DON concentration [1, 22]: 0.72 ppm | DON concentration [1, 23]: 1.01 ppm | DON concentration [3, 24]: 0.11 ppm | DON concentration [3, 23]: 0.57 ppm | Incidence rate for panicles [4, 24]: 4.7% | Number of diseased spikelets/panicle [4, 24]: 5.0 | Incidence rate for panicles [2, 22]: 2.7% | Number of diseased spikelets/panicle [2, 22]: 0.027

CON=C(C(=O)OC)c1ccccc1CON=C(C)c1cccc(C(F)(F)F)c1 [Trifloxystrobin]
DON concentration [3, 25]: 0.12 ppm | DON concentration [3, 26]: 0.35 ppm | Incidence rate for panicles [4, 25]: 3.0% | Number of diseased spikelets/panicle [4, 25]: 3.0 | Incidence rate for panicles [4, 26]: 4.3% | Number of diseased spikelets/panicle [4, 26]: 5.0

S1SSSSSSS1 [sulfur]
DON concentration [3, 27]: 0.43 ppm | DON concentration [3, 28]: 1.85 ppm | Incidence rate for panicles [4, 27]: 8.7% | Number of diseased spikelets/panicle [4, 27]: 8.7 | Incidence rate for panicles [4, 28]: 8.7% | Number of diseased spikelets/panicle [4, 28]: 10.3

Iminoctadine albesilate
DON concentration ([3]; Iminoctadine albesilate 0.030% mixed with potassium phosphite 0.070% in P2O5): 0.00 ppm | DON concentration ([3]; Iminoctadine albesilate 0.030%, without potassium phosphite): 0.22 ppm | Incidence rate for panicles ([4]; in vivo): 7.3% and 2.7%

potassium phosphate
DON inhibitory effect ([5]; Example 1, summary in text): low | DON concentration [5, 29]: 4.66 ppm | DON concentration diseased grain [6]: 86.9 ppm | DON concentration healthy grain [6]: 0.06 ppm | Incidence rate of Fusarium head blight for panicles [7, 29]: 0.0%

potassium phosphite
DON [8]: ND. (key: ND.: ND means that the analytical value is less than the detection limit (0.222 ppm) of the ELISA analysis kit.) | DON production [8]: not detected | DON amount [9]: significantly lower than that in the non-treatment | DON concentration [5, 30]: 2.41 ppm | DON concentration [5, 31]: 0.59 ppm | DON concentration [5, 29]: 0.39 ppm | DON concentration [5, 32]: 0.69 ppm | DON concentration [1, 33]: 0.77 ppm | DON concentration [3, 34]: 0.57 ppm | DON contamination amount ([3]; single agent treatment with the compound A): at a low level | DON concentration healthy grain [6]: 0.05 ppm and 0.04 ppm | DON contamination concentration in diseased grains [6]: decreased depending on the given concentration of potassium phosphite | Incidence rate of Fusarium head blight for panicles [7, 30]: 0.3% | Incidence rate of Fusarium head blight for panicles [7, 31]: 0.0% | Incidence rate of Fusarium head blight for panicles [7, 29]: 0.9% | Incidence rate of Fusarium head blight for panicles [7, 32]: 1.2% | Incidence rate for panicles [4, 34]: 10.3% | Number of diseased spikelets/panicle [4, 34]: 11.0 | Ergosterol peak area ([10]; treatment concentration 0.028%): 1810454 | Ergosterol peak area ([10]; treatment concentration 0.056%): 1834861 | Ergosterol peak area ([10]; treatment concentration 0.112%): 1769582 | Ergosterol peak area ([10]; treatment concentration 0.560%): 1921693 | Ergosterol peak area ([10]; treatment concentration 2.800%): 85891 | inhibitory effect on the fungal amount ([10]; water solution of 0.056 to 0.560% potassium phosphite, compared to non-treatment): inhibitory effect on the fungal amount at a moderate degree | inhibitory effect on the fungal amount ([10]; water solution of 2.800% potassium phosphite): remarkable inhibitory effect on the fungal amount | Incidence rate for panicles [2, 33]: 4.3% | Number of diseased spikelets/panicle [2, 33]: 0.050 | Ergosterol peak area value ([11]; 7 days of culturing): 17952 | Ergosterol peak area value ([11]; 14 days of culturing): 115921 | Ergosterol peak area value ([11]; 21 days of culturing): 372377 | Ergosterol peak area value ([11]; 28 days of culturing): 350972 | amount of ergosterol (indicator of the amount of fungi) ([11]; course over culture): reached a plateau on the 21st day
